Patent publication US20060165766A1, “Method for preparing liposome formulations with a predefined release profile” (priority 2001, published 2006)
Values joined by “and” are separate entries in the source; they are usually repeats but may differ in a detail not shown here. Identical values can stand only once. Counter-ions that a name gives are not always drawn.

Legend:
[1] = Osmolality measurements: contribution of amphipathic base to osmotic pressure of salt solutions (aggregation); type: physicochemical; details: for mOsm versos mM (slope); extent of dissociation: slope of osmolality (mOsm) versus concentration (mM); for % of expected value of osmolality contribution / Level of aggregation / Expected contribution of 25 mM amphipathic base to osmolality (calibrated in DDW and NaCl): 25 mM base; for Expected contribution of 25 mM amphipathic base to osmolality (calibrated in DDW and NaCl): pure water or NaCl solutions; for Osmolality of agent: 25 mM in DDW (pure water)
Description: Level of aggregation of the exemplified agents was evaluated by measuring osmotic pressure. Osmotic pressure is a colrgative property, depending on the actual concentration (particles per unit volume) of a solution. Thus, in case of aggregate formation in a solution, the actual concentration of the solution will be lower than the theoretical concentration of the solution, which will be evident by a lower than expected osmotic pressure.
For osmotic pressure measurements, double distilled water (DDW) obtained using Water ProPlus (Labconco, Kansas City, Mo., USA) was used for all solutions. Osmolality was measured using a 5500 Vapor Pressure Osmometer (Wescor Inc., Logan, Utah, USA) or freezing point osmometer μOSMETIE MicroOsmometer of Precision Systems (atich, MA, USA). Calibration curves of TMN, AO, and BUP osmolality in the range of 10-40 mM in pure water were used to describe the relationship between concentration and osmotic pressure of all compounds.
The effect of salts on the osmotic pressure of the amphipathic base (25 mM) was also examined by comparing the effect of NaCl with that of various ammonium salts. As a control, the osmotic pressure of each salt alone was also measured.

[2] = Conductivity measurements of salts; type: physicochemical; details: salt 50 mM in DDW
Description: Solutions in concentration range of 0.5-50 mM of NaCl and ammonium salts were prepared in DDW and measured in an “Oyster” conductivity meter (KTech).

[3] = Partition coefficient (Kp) octanol/water; type: physicochemical
Excerpt: Other parameters that may influence kinetics of release include the lipophilicity of the loaded agent and the liposome trapped volume. The higher the lipophilicity, the faster will be the release rate of the agent from the liposome. The lipophilicity of a compound may be reflected by its partition coefficient (Kp) is between octanol and water.

[4] = Aggregation of BUP and AO with dextran sulfate (DS); type: physicochemical; details: for Mole ratio weak base/DS at which aggregation (precipitation) starts: dextran sulfate
Excerpt: The dependence of the aggregation process on the loaded molecule was shown by the examples of BUP and AO. […] This however can be modified through the use of sodium salt of dextran sulfate as an additional counter ion. […]

[5] = Kinetics of TMN leakage from egg PC MLV; details: for Leakage from liposomes: 4° C.

Compound	mOsm versos mM (slope); extent of dissociation [1]	% of expected value of osmolality contribution ([1]; ammonium chloride 40 mM)	% of expected value of osmolality contribution ([1]; ammonium chloride 80 mM)	Level of aggregation ([1]; ammonium chloride 80 mM)	% of expected value of osmolality contribution ([1]; ammonium citrate 40 mM)	% of expected value of osmolality contribution ([1]; ammonium citrate 80 mM)	Level of aggregation ([1]; ammonium citrate 80 mM)	% of expected value of osmolality contribution ([1]; ammonium glucuronate 40 mM)	% of expected value of osmolality contribution ([1]; ammonium glucuronate 80 mM)	Level of aggregation ([1]; ammonium glucuronate 80 mM)	% of expected value of osmolality contribution ([1]; ammonium phosphate 40 mM)	% of expected value of osmolality contribution ([1]; ammonium phosphate 80 mM)	% of expected value of osmolality contribution ([1]; ammonium sulfate 40 mM)	% of expected value of osmolality contribution ([1]; ammonium sulfate 80 mM)	Level of aggregation ([1]; ammonium sulfate 80 mM)	Expected contribution of 25 mM amphipathic base to osmolality (calibrated in DDW and NaCl) [1]	Osmolality of agent [1]	Measured contribution of 25 mM base to osmolality ([1]; ammonium chloride 40 mM)	Measured contribution of 25 mM base to osmolality ([1]; ammonium chloride 80 mM)	Measured contribution of 25 mM base to osmolality ([1]; ammonium citrate 40 mM)	other results
N.N.O=P(O)(O)O [(NH4)2HPO4, ammonium phosphate, dibasic]	2.83																				
N.N.O=S(=O)(O)O [(NH4)2SO4, ammonium sulfate]	2.97																				
N.N.N.O=C(O)CC(O)(CC(=O)O)C(=O)O [(NH4)3 citrate, ammonium citrate, tribasic]	3.45																				Conductivity [2]: 11.96
CN(C)c1ccc2cc3ccc(N(C)C)cc3nc2c1 [AO, Acridine orange hemi(zinc chloride) salt]		100%	100%	None//None	96%	90%	Low	100%	100%	None//None	92%	79%	94%	85%	Low	48±4 mOsm and 48 mOsm	48 mOsm	49 mOsm	51 mOsm and 48 mOsm	46 mOsm	Measured contribution of 25 mM base to osmolality ([1]; ammonium citrate 80 mM): 43 mOsm; Measured contribution of 25 mM base to osmolality ([1]; ammonium glucuronate 40 mM): 48 mOsm; Measured contribution of 25 mM base to osmolality ([1]; ammonium glucuronate 80 mM): 50 mOsm and 48 mOsm; Measured contribution of 25 mM base to osmolality ([1]; ammonium phosphate 40 mM): 44 mOsm; Measured contribution of 25 mM base to osmolality ([1]; ammonium phosphate 80 mM): 41 mOsm and 38 mOsm; Measured contribution of 25 mM base to osmolality ([1]; ammonium sulfate 40 mM): 45 mOsm; Measured contribution of 25 mM base to osmolality ([1]; ammonium sulfate 80 mM): 44 mOsm and 41 mOsm; Partition coefficient (Kp) octanol/water ([3]; pH 5.5, 120 mM (NH4)2SO4): 9.00 (at pH 5.5, 120 mM (NH4)2SO4); Ratio at saturation of precipitation ([4]; DS 8,000 Da): 40; Ratio at saturation of precipitation ([4]; DS 10,000 Da): 50; Ratio at which aggregation reaches a plateau ([4]; DS 10,000 Da): 50 nmole AO or BUP per 1 mmole DS; Mole ratio weak base/DS at which aggregation (precipitation) starts [4]: 1
CCCCN1CCCCC1C(=O)Nc1c(C)cccc1C (stereo not drawn) [BUP, bupivacaine]		97%	100%	None//None	100%	91%	None	100%	100%	None//None	97%	84%	97%	88%	None	32±5 mOsm and 32 mOsm	32 mOsm	31 mOsm	30 mOsm and 32 mOsm	32 mOsm	Level of aggregation ([1]; ammonium phosphate 80 mM): None//|Low; Measured contribution of 25 mM base to osmolality ([1]; ammonium citrate 80 mM): 25 mOsm and 29 mOsm; Measured contribution of 25 mM base to osmolality ([1]; ammonium glucuronate 40 mM): 33 mOsm; Measured contribution of 25 mM base to osmolality ([1]; ammonium glucuronate 80 mM): 31 mOsm and 32 mOsm; Measured contribution of 25 mM base to osmolality ([1]; ammonium phosphate 40 mM): 30 mOsm; Measured contribution of 25 mM base to osmolality ([1]; ammonium phosphate 80 mM): 30 mOsm and 27 mOsm; Measured contribution of 25 mM base to osmolality ([1]; ammonium sulfate 40 mM): 31 mOsm; Measured contribution of 25 mM base to osmolality ([1]; ammonium sulfate 80 mM): 29 mOsm and 28 mOsm; Partition coefficient (Kp) octanol/water ([3]; pH 6, 250 mM (NH4)2SO4): 0.35 (at pH 6, 250 mM (NH4)2SO4); Ratio at which aggregation reaches a plateau ([4]; DS 10,000 Da): 50 nmole AO or BUP per 1 mmole DS; Mole ratio weak base/DS at which aggregation (precipitation) starts [4]: 1.0
N.O=C[C@H](O)[C@@H](O)[C@H](O)[C@H](O)C(=O)O [NH4 glucuronate, Ammonium glucuronate]	1.62																				Conductivity [2]: 3.88 mS/cm
Cl.N [NH4Cl, Ammonium chloride]	1.96																				
[Cl-].[Na+] [NaCl]	2.00																				
CC1(C)CC(N)CC(C)(C)N1[O] [TMN, 2,2,6,6-tetramethylpiperidine-4-amino-1-oxyl]		100%	60%	medium	62%	20%	high	95%	90%	None	71%	20%	19%	0%	complete	21 mOsm	21 mOsm	21 mOsm	12 mOsm	13 mOsm	Level of aggregation ([1]; ammonium chloride 40 mM): Low; Level of aggregation ([1]; ammonium citrate 40 mM): Medium; Level of aggregation ([1]; ammonium glucuronate 40 mM): None; Level of aggregation ([1]; ammonium phosphate 40 mM): Medium; Level of aggregation ([1]; ammonium phosphate 80 mM): high; Level of aggregation ([1]; ammonium sulfate 40 mM): High; Aggregation in NaCl solutions ([1]; NaCl): lack of aggregate formation; Ranking of extent of aggregation with ammonium salts ([1]; Tables Ia, Ib, Ic): ammonium sulfate>ammonium citrate=ammonium phosphate>>ammonium chloride>ammonium glucuronate; Measured contribution of 25 mM base to osmolality ([1]; ammonium citrate 80 mM): 5 mOsm; Measured contribution of 25 mM base to osmolality ([1]; ammonium glucuronate 40 mM): 20 mOsm; Measured contribution of 25 mM base to osmolality ([1]; ammonium glucuronate 80 mM): 19 mOsm; Measured contribution of 25 mM base to osmolality ([1]; ammonium phosphate 40 mM): 15 mOsm; Measured contribution of 25 mM base to osmolality ([1]; ammonium phosphate 80 mM): 5 mOsm; Measured contribution of 25 mM base to osmolality ([1]; ammonium sulfate 40 mM): 4 mOsm; Measured contribution of 25 mM base to osmolality ([1]; ammonium sulfate 80 mM): 0 mOsm; Partition coefficient (Kp) octanol/water ([3]; pH 7, 150 mM (NH4)2SO4): 0.04 (at pH 7, 150 mM (NH4)2SO4); Leakage from liposomes ([5]; ammonium chloride gradient): less than 10%; Leakage from liposomes ([5]; ammonium glucuronate gradient): less than 10%; Leakage from liposomes ([5]; ammonium sulfate gradient, until 144 hr): no TV leakage was observed; Order of encapsulation stability by ammonium salt ([5]; 25° C. and 37° C.): (NH4)2SO4>>NH4Cl>NH4 glucuronate
